# Experimental data from paper PMC2749030, “New stably transfected bioluminescent cells expressing FLAG epitope-tagged estrogen receptors to study their chromatin recruitment” (BMC Biotechnology, 2009).
# What was measured:
# ERα = tested on: ERα; parameters: method as in PMID 11708925, PMID 11150164; conditions: ERα selective agonist; RBA = 100 for estradiol; cited from earlier work
# FLAG-ERα = biological target: T1, FLAG-ERα (Homo sapiens, UniProt P03372); test: ERE-driven luciferase transactivation assay in HELN-Fα cells; type: cell-based; conditions: 16 hr stimulation, luciferase activity, 100% = 10 nM E2
# T1 construct: expressed in transfected cells; pSG5-puro plasmid
# T1 sequence (P03372 1-595): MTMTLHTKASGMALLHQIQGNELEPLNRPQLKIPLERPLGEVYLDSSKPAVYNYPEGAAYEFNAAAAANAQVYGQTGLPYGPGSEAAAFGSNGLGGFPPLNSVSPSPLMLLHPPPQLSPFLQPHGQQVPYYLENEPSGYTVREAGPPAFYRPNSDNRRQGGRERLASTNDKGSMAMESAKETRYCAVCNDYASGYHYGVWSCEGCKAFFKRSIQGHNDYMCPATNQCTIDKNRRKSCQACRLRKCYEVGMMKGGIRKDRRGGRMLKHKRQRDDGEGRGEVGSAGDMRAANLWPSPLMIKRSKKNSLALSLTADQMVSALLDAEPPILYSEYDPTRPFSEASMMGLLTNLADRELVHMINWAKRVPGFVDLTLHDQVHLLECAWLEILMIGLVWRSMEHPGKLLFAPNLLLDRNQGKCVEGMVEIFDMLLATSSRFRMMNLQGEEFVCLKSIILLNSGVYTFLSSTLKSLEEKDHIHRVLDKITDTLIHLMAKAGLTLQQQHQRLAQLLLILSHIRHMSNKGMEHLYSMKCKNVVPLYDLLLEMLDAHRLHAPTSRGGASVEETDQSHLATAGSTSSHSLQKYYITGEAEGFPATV
# Experimental: (§1) Cells were incubated with compounds for 16 h. At the end of the incubation, effector containing medium was removed and replaced by 0.3 mM luciferin containing 6% DCC-FCS. At this concentration, luciferin diffuses into the cell and produces a stable luminescent signal. The 96-well plate was then introduced in a microplate luminometer (Microbeta, Wallac) and intact living cell luminescence measured for 2 s. EC50 values were evaluated using Graph-Pad Prism Statistics software (version 4.0; Graph-Pad Software Inc., San Diego, CA, USA).
# FLAG-ERβ = biological target: T2, FLAG-ERβ (Homo sapiens, UniProt Q92731); test: ERE-driven luciferase transactivation assay in HELN-Fβ cells; type: cell-based; conditions: HELN-Fβ versus HELN-Fα cells, 16 hr
# T2 construct: FLAG-ERβ (full length version of 530 amino acids); expressed in transfected cells; pSG5-puro plasmid
# Experimental: as §1
# T2 sequence (Q92731 whole entry): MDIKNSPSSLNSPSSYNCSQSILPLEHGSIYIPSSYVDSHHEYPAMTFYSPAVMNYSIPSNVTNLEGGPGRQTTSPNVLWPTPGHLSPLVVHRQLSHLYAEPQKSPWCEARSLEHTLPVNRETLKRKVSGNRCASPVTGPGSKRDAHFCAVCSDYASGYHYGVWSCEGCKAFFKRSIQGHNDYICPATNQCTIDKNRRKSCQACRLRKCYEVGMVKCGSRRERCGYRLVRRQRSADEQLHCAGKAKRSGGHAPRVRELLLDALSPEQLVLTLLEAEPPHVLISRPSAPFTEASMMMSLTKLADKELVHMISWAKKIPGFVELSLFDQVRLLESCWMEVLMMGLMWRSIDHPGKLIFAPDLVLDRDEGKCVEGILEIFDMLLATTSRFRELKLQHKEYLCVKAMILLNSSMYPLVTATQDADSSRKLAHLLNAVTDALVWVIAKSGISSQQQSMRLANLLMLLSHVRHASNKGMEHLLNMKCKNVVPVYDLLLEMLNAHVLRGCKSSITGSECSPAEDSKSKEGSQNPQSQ
smiles,measurement,setting,value
"CCCc1c(-c2ccc(O)cc2)nn(-c2ccc(O)cc2)c1-c1ccc(O)cc1 [PPT, Propylpyrazoletriol]",relative binding activity (RBA),ERα,49
same,EC50,FLAG-ERα,150 pM
same,activation of ERβ (in words),FLAG-ERβ,activated only ERα
